Assay [1] concerns the target nuclear factor-kappa B (NF-kB)-inducing kinase (NIK) (Homo sapiens (Human), UniProt Q99558). As to the kind of experiment: NIK enzyme inhibition assay (Transcreener ADP, NIK ADP-FP). It counts as biochemical. To be noted: purified NIK 0.5 nM, 10 μM ATP, fluorescence polarization; read-out: NIK ADP-FP (Ki μM). In general terms: Polarisation of emitted light reports the rotation of a fluorescent probe.

In assay [2] the test system is REL-A (p65) nuclear translocation, HeLa cells. As to the kind of experiment: REL-A (p65) nuclear translocation assay in HeLa cells (classical NF-kB signaling, TNF-α stimulated). The format is cell-based. The following applies: Homo sapiens, 0.5 h; HeLa cells, 10 ng/mL TNF-α for 30 minutes; read-out: REL-A HeLa Transloc Assay (IC50). As for the experimental part: (§1) Several assays were developed to profile the cellular activities of NIK inhibitors.
(§2) (2) A second set of cell assay are used to define the selectivity of NIK inhibitors toward inhibition of classical vs. non-classical NF-kB signaling and rely on quantification of the nuclear translocation of p52 (NF-kB2) and REL-A (p65) using high content cellular imaging. For the p52 (non-classical NF-kB signaling) nuclear translocation assay, HeLa cells are treated with different concentrations of compounds (0.2% DMSO final) in medium containing 10% fetal bovine serum and then stimulated with 100 ng/mL of an anti-lymphotoxin beta receptor antibody (R&D Systems) for 5 hours. In the REL-A nuclear translocation assay, HeLa cells are incubated with compounds (0.2% DMSO final) for 4.5 hours in medium containing 10% fetal bovine serum before stimulating them with 10 ng/mL tumor necrosis factor (TNF)-α (R&D Systems) for 30 minutes. Cells are fixed with 4% paraformaldehyde, permeabilized by adding 0.1% Triton X-100 in phosphate buffered saline, and then are incubated with either 2 ug/mL anti-p52 antibody (Millipore) or 400 ng/mL anti-REL-A (p65) antibody (Santa Cruz Biotechnology). Finally, the cells are incubated with an Alexa488-labeled secondary antibody (Invitrogen) and DRAQ5 DNA stain (Biostatus). Imaging is carried out using an Opera reader (Perkin Elmer) and data are analyzed with the aid of Acapella software (Perkin Elmer). The p52 or REL-Atranslocation into the nucleus is quantified by the ratio of the nuclear to cytoplasmic signal intensity. […] The compounds in listed in Table 1 have the corresponding inhibitory value (IC50 in micromolar) for NIK p52 Translocation Assay as set forth in Table 2.
(§3) The compounds in listed in Table 1 have the corresponding inhibitory values (IC50 in micromolar) for the Translocation Assays as set forth in Table 2.

Assay [3] concerns p52 (NF-kB2) nuclear translocation, HeLa cells. As to the kind of experiment: p52 (NF-kB2) nuclear translocation assay in HeLa cells (non-classical NF-kB signaling, anti-lymphotoxin beta receptor antibody stimulated). The format is cell-based. The following applies: Homo sapiens, 100 ng/mL anti-lymphotoxin beta receptor antibody for 5 hours, read-out: p52 HeLa Transloc Assay (IC50). Here is the method: as §1, §2, §3

nuclear factor-kappa B (NF-kB)-inducing kinase (NIK), sequence (Q99558 whole entry): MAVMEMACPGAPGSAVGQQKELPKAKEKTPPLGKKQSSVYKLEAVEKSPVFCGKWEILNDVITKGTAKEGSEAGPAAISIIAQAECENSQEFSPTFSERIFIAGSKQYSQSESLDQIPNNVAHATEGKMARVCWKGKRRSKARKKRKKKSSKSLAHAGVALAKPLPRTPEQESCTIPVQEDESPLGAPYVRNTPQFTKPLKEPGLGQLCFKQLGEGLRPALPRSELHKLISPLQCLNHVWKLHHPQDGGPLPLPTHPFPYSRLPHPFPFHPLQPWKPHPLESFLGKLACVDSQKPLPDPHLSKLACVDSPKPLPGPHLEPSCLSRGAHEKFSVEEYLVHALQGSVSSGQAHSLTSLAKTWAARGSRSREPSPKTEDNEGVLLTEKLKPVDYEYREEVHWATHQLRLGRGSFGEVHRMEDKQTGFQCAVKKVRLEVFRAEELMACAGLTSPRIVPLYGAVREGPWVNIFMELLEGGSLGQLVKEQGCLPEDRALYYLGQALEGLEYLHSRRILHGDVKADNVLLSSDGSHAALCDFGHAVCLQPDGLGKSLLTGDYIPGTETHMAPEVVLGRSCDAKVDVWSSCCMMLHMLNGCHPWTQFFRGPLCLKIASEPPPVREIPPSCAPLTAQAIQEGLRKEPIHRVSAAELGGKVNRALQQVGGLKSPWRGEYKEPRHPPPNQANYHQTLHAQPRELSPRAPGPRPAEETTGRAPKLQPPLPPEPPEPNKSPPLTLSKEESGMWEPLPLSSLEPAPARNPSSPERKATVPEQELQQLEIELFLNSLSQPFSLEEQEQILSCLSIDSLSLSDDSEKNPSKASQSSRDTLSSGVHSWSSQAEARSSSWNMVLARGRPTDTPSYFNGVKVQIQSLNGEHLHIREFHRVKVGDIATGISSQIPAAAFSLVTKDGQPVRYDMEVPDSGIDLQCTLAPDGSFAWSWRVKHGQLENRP

Broadly, the Ki is a measure of affinity in units of concentration, obtained from inhibition or displacement. The IC50 is the concentration needed to halve the response being measured. Regarding `Cc1ncc2c(C(N)=O)nn(-c3cccc(C#C[C@]4(O)CCN(C)C4=O)c3)c2n1` [Compound 157, 1-[3-[2-[(3R)-3-hydroxy-1-methyl-2-oxo-pyrrolidin-3-yl]ethynyl]phenyl]-6-methyl-pyrazolo[3,4-d]pyrimidine-3-carboxamide], in assay [1], the Ki was 0.68 nM. Moreover, the IC50 was 2000 nM in assay [2] and 157 nM in assay [3].

For the molecule `CN1CC[C@@](O)(C#Cc2cccc(-c3nc(C(N)=O)n4cc(CN5CCOCC5)ccc34)c2)C1=O` [Compound 100, 1-[3-[2-[(3R)-3-hydroxy-1-methyl-2-oxo-pyrrolidin-3-yl]ethynyl]phenyl]-6-(morpho-linomethyl)imidazo[1,5-a]pyridine-3-carboxamide], the Ki in assay [1] worked out at 1.65 nM. Also, the IC50 in assay [2] is 2000 nM; in assay [3], 156 nM.

Turning to `CN1CC[C@@](O)(C#Cc2ccnc(-n3nc(C(N)=O)c4c3C[C@@]3(C)C[C@H]3C4)c2)C1=O` [Compound 6, (4aS,5aR)-1-[4-[2-[(3R)-3-hydroxy-1-methyl-2-oxo-pyrroli-din-3-yl]ethynyl]-2-pyri-dyl]-5a-methyl-4,4a,5,6-tetrahydrocyclopropa[f]inda-zole-3-carboxamide], the Ki in assay [1] is 7.78 nM. The IC50 in assay [2] worked out at 10000 nM; in assay [3], 901 nM.

As to `COc1ccn2c(C(N)=O)nc(-c3cccc(C#C[C@]4(O)CCN(C)C4=O)c3)c2c1` [Compound 97, 1-[3-[2-[(3R)-3-hydroxy-1-methyl-2-oxo-pyrrolidin-3-yl]ethynyl]phenyl]-7-methoxy-imidazo[1,5-a]pyridine-3-carboxamide], in assay [1], the Ki was 0.05 nM. Also, the IC50 in assay [2] was determined as 1000 nM; in assay [3] it was 6.6 nM.

With `CCOc1cc2c(cn1)c(C(N)=O)nn2-c1cccc(C#C[C@]2(O)CCN(C)C2=O)c1` [Compound 136, 6-ethoxy-1-[3-[2-[(3R)-3-hy-droxy-1-methyl-2-oxo-pyrroli-din-3-yl]ethynyl]phenyl] pyrazolo[4,3-c]pyridine-3-carboxamide], the Ki in assay [1] is 0.39 nM. Also, the figures for the IC50 in assay [2] and in assay [3] were 20000 nM and 72.6 nM, respectively.

For `CN1CC[C@@](O)(C#Cc2ccnc(-n3nc(C(N)=O)c4c3CCC(C)(C)C4)c2)C1=O` [Compound 64, 1-[4-[2-[(3R)-3-hydroxy-1-methyl-2-oxo-pyrrolidin-3-yl]ethynyl]-2-pyridyl]-5,5-dimethyl-6,7-dihydro-4H-inda-zole-3-carboxamide], the Ki in assay [1] is 3.06 nM. Besides, the IC50 in assay [2] stood at 3030 nM; in assay [3], 2310 nM.

As to `CN1CC[C@@](O)(C#Cc2cccc(-n3nc(C(N)=O)c4cnc(N5CCCC5)cc43)c2)C1=O` [Compound 137, 1-[3-[2-[(3R)-3-hydroxy-1-methyl-2-oxo-pyrrolidin-3-yl]ethynyl]phenyl]-6-pyrroli-din-1-yl-pyrazolo[4,3-c]pyri-dine-3-carboxamide], in assay [1], the Ki came out at 0.25 nM. Also, the IC50 in assay [2] turned out to be 20000 nM; in assay [3] it was 33.8 nM.

As for `CN1CC[C@@](O)(C#Cc2ccnc(-n3nc(C(N)=O)c4cc(Br)ccc43)c2)C1=O` [Compound 66, 5-bromo-1-[4-[2-[(3R)-3-hy-droxy-1-methyl-2-oxo-pyrroli-din-3-yl]ethynyl]-2-pyri-dyl]indazole-3-carboxamide], the Ki in assay [1] stood at 0.15 nM. Further, the IC50 amounted to 20000 nM in assay [2] and 55 nM in assay [3].

On to `COc1ccn2c(C(N)=O)nc(-c3cccc(C#C[C@@](C)(O)c4nnc(C)o4)c3)c2c1` [Compound 181, 1-[3-[(3R)-3-hydroxy-3-(5-methyl-1,3,4-oxadiazol-2-yl)but-1-ynyl]phenyl]-7-methoxy-imidazo[1,5-a] pyridine-3-carboxamide], for which the Ki in assay [1] was 0.1 nM. In addition, the IC50 in assay [2] was over 2000 nM; in assay [3], 48 nM.

With `CN1CC[C@@](O)(C#Cc2cccc(-n3nc(C(N)=O)c4c3CCC[C@H]4O)c2)C1=O` [Compound 2, (4R)-4-hydroxy-1-[3-[2-[(3R)-3-hydroxy-1-methyl-2-oxo-pyrrolidin-3-yl]ethynyl]phenyl]-4,5,6,7-tetrahydroinda-zole-3-carboxamide], the Ki in assay [1] came to 1.07 nM. In addition, the IC50 in assay [2] is 20000 nM; in assay [3], 273 nM.

As for `CN1CC[C@@](O)(C#Cc2cccc(-c3nn(C(N)=O)c4ccccc34)c2)C1=O` [Compound 147, 3-[3-[2-[(3R)-3-hydroxy-1-methyl-2-oxo-pyrrolidin-3-yl]ethynyl]phenyl]indazole-1-carboxamide], the Ki in assay [1] was found to be 0.324 nM. For the same molecule, the figures for the IC50 in assay [2] and in assay [3] were 20000 nM and 14.1 nM, respectively.

`CN1CC[C@@](O)(C#Cc2cccc(-c3nc(C(N)=O)n4c3CCCC4)c2)C1=O` [Compound 177, (R)-1-(3-((3-hydroxy-1-methyl-2-oxopyrrolidin-3-yl)ethynyl)phenyl)-5,6,7,8-tetrahydroimidazo[1,5-a]pyridine-3-carboxamide]: the inhibition constant Ki in assay [1] is 0.11 nM. Further, the IC50 in assay [2] was over 2000 nM; in assay [3], 150 nM.

As to `Cc1nnc([C@](C)(O)C#Cc2cccc(-n3nc(C(N)=O)c4cccnc43)c2)o1` [Compound 67, 1-[3-[(3R)-3-hydroxy-3-(5-methyl-1,3,4-oxadiazol-2-yl)but-1-ynyl]phenyl]pyrazo-lo[3,4-b]pyridine-3-carbox-amide], the Ki in assay [1] was found to be 3.14 nM. Also, the figures for the 50% inhibitory concentration (IC50) in assay [2] and in assay [3] were 20000 nM and 893 nM, respectively.

Take `COc1ccc2c(C(N)=O)nn(-c3cccc(C#C[C@]4(O)CCN(C)C4=O)c3)c2n1` [Compound 154, 1-[3-[2-[(3R)-3-hydroxy-1-methyl-2-oxo-pyrrolidin-3-yl]ethynyl]phenyl]-6-methoxy-pyrazolo[3,4-b]pyridine-3-carboxamide]: in assay [1], the Ki amounted to 0.05 nM. The values for the concentration for half-maximal inhibition (IC50) in assay [2] and in assay [3] were 2000 nM and 33.9 nM, respectively.

As to `CN1CC[C@@](O)(C#Cc2cccc(-c3nc(C(N)=O)n4cc(Cl)ccc34)c2)C1=O` [Compound 93, 6-chloro-1-[3-[2-[(3R)-3-hy-droxy-1-methyl-2-oxo-pyrroli-din-3-yl]ethynyl]phenyl] imidazo[1,5-a]pyridine-3-carboxamide], the Ki in assay [1] came to 0.06 nM. Moreover, the concentration for half-maximal inhibition (IC50) in assay [2] was found to be 20000 nM; in assay [3] it was 15.3 nM.

Regarding `CN1CC[C@@](O)(C#Cc2cccc(-n3nc(C(N)=O)c4c(Cl)cccc43)c2)C1=O` [Compound 39, 4-chloro-1-[3-[2-[(3R)-3-hydroxy-1-methyl-2-oxo-pyrroli-din-3-yl]ethynyl]phenyl] indazole-3-carboxamide], the Ki in assay [1] was found to be 1.21 nM. Also, the figures for the IC50 in assay [2] and in assay [3] were 20000 nM and 108 nM, respectively.

On to `CN1CC[C@@](O)(C#Cc2cccc(-n3nc(C(N)=O)c4c3CCC[C@@H]4O)c2)C1=O` [Compound 3, (4S)-4-hydroxy-1-[3-[2-[(3R)-3-hydroxy-1-methyl-2-oxo-pyrrolidine-3-yl]ethynyl]phenyl]-4,5,6,7-tetrahydroinda-zole-3-carboxamide], for which, in assay [1], the Ki came out at 1.13 nM. For the same molecule, the figures for the IC50 in assay [2] and in assay [3] were 20000 nM and 544 nM, respectively.

On to `Cc1ccc2c(C(N)=O)nn(-c3cccc(C#C[C@]4(O)CCN(C)C4=O)c3)c2n1` [Compound 175, 1-[3-[2-[(3R)-3-hydroxy-1-methyl-2-oxo-pyrrolidin-3-yl]ethynyl]phenyl]-6-methyl-pyrazolo[3,4-b]pyridine-3-carboxamide], for which, in assay [1], the inhibition constant (Ki) worked out at 0.05 nM. Also, the IC50 in assay [2] was over 2000 nM; in assay [3], 135 nM.

For `CN1CC[C@@](O)(C#Cc2cccc(-n3nc(C(N)=O)c4cnc(Cl)cc43)c2)C1=O` [Compound 76, 6-chloro-1-[3-[2-[(3R)-3-hy-droxy-1-methyl-2-oxo-pyrroli-din-3-yl]ethynyl]phenyl] pyrazolo[4,3-c]pyridine-3-carboxamide], the Ki in assay [1] was 0.05 nM. Also, the values for the IC50 in assay [2] and in assay [3] were 8000 nM and 41.2 nM, respectively.

As for `CN1CC[C@@](O)(C#Cc2cc(-n3nc(C(N)=O)c4c3CCCC4)ccc2C#N)C1=O` [Compound 167, 1-[4-cyano-3-[2-[(3R)-3-hy-droxy-1-methyl-2-oxo-pyrroli-din-3-yl]ethynyl]phenyl]-4,5,6,7-tetrahydroindazole-3-carboxamide], in assay [1], the Ki was found to be 1.93 nM. Moreover, the IC50 was 20000 nM in assay [2] and 397 nM in assay [3].

As for `CN1CC[C@@](O)(C#Cc2ccnc(-n3nc(C(N)=O)c4c3CCC4)c2)C1=O` [Compound 56, 1-[4-[2-[(3R)-3-hydroxy-1-methyl-2-oxo-pyrrolidin-3-yl]ethynyl]-2-pyridyl]-5,6-dihydro-4H-cyclopenta[c]py-razole-3-carboxamide], the Ki in assay [1] came to 0.87 nM. Besides, the IC50 in assay [2] stood at 20000 nM; in assay [3] it was 355 nM.

Values taken from US9605005B2, “Alkynyl alcohols and methods of use” (Genentech, Inc., priority 2013, dated 2017).
